“And” between values parts separate entries of the source, which are not always exact repeats. Equal values may be shown once. Inconclusive results and toxic doses are left out.
Test system: CD2F1 mice, L1210 leukemia ip, survival T/C
Assay: NCI In Vivo Anticancer Drug Screen. Data for tumor model L1210 Leukemia (intraperitoneal) in CD2F1 (CDF1) mice
Conditions: endpoint: mean survival time, higher = longer survival
Procedure, shortened: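 Compound-dosed mice with transplantable tumor versus matched vehicle controls; endpoint ratio T/C reported.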

[1] = dose: 12.5 mg/kg/injection, schedule: Q01DX009 (ip), vehicle: saline
[2] = dose: 50.0 mg/kg/injection, schedule: Q01DX009 (ip), vehicle: saline

CC1[N-]C(/C=N/O)NC(C)N1.CC1[N-]C(/C=N/O)NC(C)N1.[Br][Ni+2][Br] (stereo not given)
T/C (dose: 5.0 mg/kg/injection, schedule: Q01DX001 (ip), vehicle: saline): 105 % of control
T/C (dose: 10.0 mg/kg/injection, schedule: Q01DX001 (ip), vehicle: saline): 103 % of control
T/C (dose: 20.0 mg/kg/injection, schedule: Q01DX001 (ip), vehicle: saline): 105 % of control
T/C (dose: 40.0 mg/kg/injection, schedule: Q01DX001 (ip), vehicle: saline): 108 % of control
T/C (dose: 75.0 mg/kg/injection, schedule: Q01DX001 (ip), vehicle: saline): 106 % of control
T/C (dose: 80.0 mg/kg/injection, schedule: Q01DX001 (ip), vehicle: saline): 105 % of control

O=C(O/N=C(/CN1CCOCC1)c1ccc(Cl)cc1)c1ccccc1
T/C (dose: 100.0 mg/kg/injection, schedule: Q04DX003 (ip), vehicle: saline with Tween-80): 97 % of control
T/C (dose: 200.0 mg/kg/injection, schedule: Q04DX003 (ip), vehicle: saline with Tween-80): 94 % of control
T/C (dose: 400.0 mg/kg/injection, schedule: Q04DX003 (ip), vehicle: saline with Tween-80): 90 % of control

COc1cc(/C=C2\NC(=O)NC2=O)ccc1O
T/C (dose: 100.0 mg/kg/injection, schedule: Q01DX001 (ip), vehicle: saline with Tween-80): 94 % of control
T/C (dose: 200.0 mg/kg/injection, schedule: Q01DX001 (ip), vehicle: saline with Tween-80): 88 % of control
T/C (dose: 400.0 mg/kg/injection, schedule: Q01DX001 (ip), vehicle: saline with Tween-80): 90 % of control

C=CCN(CC=C)N=Nc1ccc(C(N)=O)cc1
T/C (dose: 19.75 mg/kg/injection, schedule: Q01DX009 (ip), vehicle: Klucel (hydroxypropylcellulose) (HPC)): 102 % of control
T/C (dose: 39.5 mg/kg/injection, schedule: Q01DX009 (ip), vehicle: Klucel (hydroxypropylcellulose) (HPC)): 102 % of control
T/C (dose: 79.0 mg/kg/injection, schedule: Q01DX009 (ip), vehicle: Klucel (hydroxypropylcellulose) (HPC)): 114 % of control and 110 % of control
T/C (dose: 118.0 mg/kg/injection, schedule: Q01DX009 (ip), vehicle: Klucel (hydroxypropylcellulose) (HPC)): 100 % of control
T/C (dose: 177.0 mg/kg/injection, schedule: Q01DX009 (ip), vehicle: Klucel (hydroxypropylcellulose) (HPC)): 112 % of control

CCCCN(CCCC)CCCN(CCCOS(C)(=O)=O)CCCOS(C)(=O)=O
T/C (dose: 12.0 mg/kg/injection, schedule: Q01DX001 (ip), vehicle: saline): 110 % of control
T/C [1]: 121 % of control
T/C (dose: 12.5 mg/kg/injection, schedule: Q04DX003 (ip), vehicle: saline): 110 % of control
T/C (dose: 25.0 mg/kg/injection, schedule: Q01DX001 (ip), vehicle: saline): 114 % of control
T/C (dose: 25.0 mg/kg/injection, schedule: Q04DX003 (ip), vehicle: saline): 117 % of control
T/C [2]: 162 % of control
T/C (dose: 100.0 mg/kg/injection, schedule: Q01DX009 (ip), vehicle: saline): 102 % of control
T/C (dose: 100.0 mg/kg/injection, schedule: Q04DX003 (ip), vehicle: saline): 160 % of control
T/C (dose: 200.0 mg/kg/injection, schedule: Q01DX001 (ip), vehicle: saline): 90 % of control

c1ccc([I+]c2ccccc2)cc1
T/C (dose: 0.65 mg/kg/injection, schedule: Q01DX009 (ip), vehicle: saline with Tween-80): 98 % of control
T/C (dose: 1.3 mg/kg/injection, schedule: Q01DX009 (ip), vehicle: saline with Tween-80): 98 % of control
T/C (dose: 2.5 mg/kg/injection, schedule: Q01DX009 (ip), vehicle: saline sonified): 103 % of control
T/C (dose: 2.5 mg/kg/injection, schedule: Q01DX009 (ip), vehicle: saline with Tween-80): 98 % of control
T/C (dose: 2.5 mg/kg/injection, schedule: Q04DX003 (ip), vehicle: saline with Tween-80): 95 % of control
T/C (dose: 5.0 mg/kg/injection, schedule: Q01DX009 (ip), vehicle: saline sonified): 94 % of control
T/C (dose: 5.0 mg/kg/injection, schedule: Q04DX003 (ip), vehicle: saline with Tween-80): 104 % of control
T/C (dose: 5.0 mg/kg/injection, schedule: Q04DX003 (ip), vehicle: saline): 98 % of control
T/C (dose: 10.0 mg/kg/injection, schedule: Q04DX003 (ip), vehicle: saline with Tween-80): 103 % of control
T/C (dose: 10.0 mg/kg/injection, schedule: Q04DX003 (ip), vehicle: saline): 97 % of control
T/C (dose: 20.0 mg/kg/injection, schedule: Q04DX003 (ip), vehicle: saline): 115 % of control

O=C(OCC1CCN2CCCC12)c1ccccc1 (stereo not given)
T/C [1]: 88 % of control
T/C (dose: 25.0 mg/kg/injection, schedule: Q01DX009 (ip), vehicle: saline): 91 % of control
T/C [2]: 91 % of control

— PubChem BioAssay AID256 (DTP/NCI, 2004)
